Several values for one entry are separate records, joined by “and”; a condition that tells them apart may be missing. Equal values may be shown once. Inconclusive results and toxic doses are left out. Cut-off read from the data, not from the text of the source: active = T/C of 150% or more; inactive = T/C below 125%.
System: L1210 leukemia ip in BDF1 mice, survival T/C
Assay: NCI In Vivo Anticancer Drug Screen. Data for tumor model L1210 Leukemia (intraperitoneal) in B6D2F1 (BDF1) mice
Settings: higher = longer survival
Method in brief: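 In this screen, tumor-bearing mice given compound are compared to those given vehicle, and their survival values are reported as a treated-to-control quotient.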

[1] = endpoint: mean survival time, dose: 100.0 mg/kg/injection, schedule: Q01DX009 (ip), vehicle: saline with Tween-80
[2] = endpoint: mean survival time, dose: 100.0 mg/kg/injection, schedule: Q04DX003 (ip), vehicle: saline with Tween-80
[3] = endpoint: mean survival time, dose: 200.0 mg/kg/injection, schedule: Q04DX003 (ip), vehicle: saline with Tween-80
[4] = endpoint: mean survival time, dose: 100.0 mg/kg/injection, schedule: Q04DX002 (ip), vehicle: saline
[5] = endpoint: mean survival time, dose: 200.0 mg/kg/injection, schedule: Q04DX002 (ip), vehicle: saline
[6] = endpoint: mean survival time, dose: 400.0 mg/kg/injection, schedule: Q04DX002 (ip), vehicle: saline
[7] = endpoint: mean survival time, dose: 100.0 mg/kg/injection, schedule: Q04DX003 (ip), vehicle: Klucel (hydroxypropylcellulose) (HPC)
[8] = endpoint: mean survival time, dose: 100.0 mg/kg/injection, schedule: Q04DX002 (ip), vehicle: saline with Tween-80
[9] = endpoint: mean survival time, dose: 200.0 mg/kg/injection, schedule: Q04DX002 (ip), vehicle: saline with Tween-80
[10] = endpoint: mean survival time, dose: 400.0 mg/kg/injection, schedule: Q04DX002 (ip), vehicle: saline with Tween-80
[11] = endpoint: mean survival time, dose: 100.0 mg/kg/injection, schedule: Q01DX001 (ip), vehicle: saline
[12] = endpoint: mean survival time, dose: 200.0 mg/kg/injection, schedule: Q01DX001 (ip), vehicle: saline
[13] = endpoint: mean survival time, dose: 100.0 mg/kg/injection, schedule: Q01DX009 (ip), vehicle: saline
[14] = endpoint: mean survival time, dose: 200.0 mg/kg/injection, schedule: Q01DX009 (ip), vehicle: saline

Measured: T/C

CN1CCOc2ccccc2OCCOCCOc2ccccc2OCC1
inactive: endpoint: mean survival time, dose: 100.0 mg/kg/injection, schedule: Q01DX001 (ip), vehicle: Klucel (hydroxypropylcellulose) (HPC) 100 % of control | endpoint: mean survival time, dose: 200.0 mg/kg/injection, schedule: Q01DX001 (ip), vehicle: Klucel (hydroxypropylcellulose) (HPC) 96 % of control | endpoint: mean survival time, dose: 400.0 mg/kg/injection, schedule: Q01DX001 (ip), vehicle: Klucel (hydroxypropylcellulose) (HPC) 102 % of control

CN1CCC(=O)c2ccccc21
inactive: endpoint: mean survival time, dose: 75.0 mg/kg/injection, schedule: Q01DX001 (ip), vehicle: other 97 % of control | endpoint: mean survival time, dose: 150.0 mg/kg/injection, schedule: Q01DX001 (ip), vehicle: other 100 % of control | endpoint: mean survival time, dose: 300.0 mg/kg/injection, schedule: Q01DX001 (ip), vehicle: other 100 % of control

OC1COC(Cl)C(O)C1O (stereo not drawn)
inactive: endpoint: mean survival time, dose: 25.0 mg/kg/injection, schedule: Q01DX009 (ip), vehicle: saline with Tween-80 96 % of control | endpoint: mean survival time, dose: 50.0 mg/kg/injection, schedule: Q01DX009 (ip), vehicle: saline with Tween-80 97 % of control | [1] 94 % of control | [2] 91 % of control | [3] 88 % of control

Nc1nc2c(c(=O)[nH]1)N(CC(=O)O)C(CNc1ccc(C(=O)NC(CCC(=O)O)C(=O)O)cc1)CN2 (stereo not drawn)
inactive: endpoint: mean survival time, dose: 100.0 mg/kg/injection, schedule: Q01DX001 (ip), vehicle: alkali diluted with saline 94 % of control | endpoint: mean survival time, dose: 200.0 mg/kg/injection, schedule: Q01DX001 (ip), vehicle: alkali diluted with saline 93 % of control | endpoint: mean survival time, dose: 400.0 mg/kg/injection, schedule: Q01DX001 (ip), vehicle: alkali diluted with saline 96 % of control

C#CC(=O)OC
inactive: endpoint: mean survival time, dose: 0.78 mg/kg/injection, schedule: Q01DX009 (ip), vehicle: saline 103 % of control | endpoint: mean survival time, dose: 1.56 mg/kg/injection, schedule: Q01DX009 (ip), vehicle: saline 103 % of control | endpoint: mean survival time, dose: 1.56 mg/kg/injection, schedule: Q04DX003 (ip), vehicle: saline 103 % of control | endpoint: mean survival time, dose: 3.12 mg/kg/injection, schedule: Q01DX009 (ip), vehicle: saline 97 % of control | endpoint: mean survival time, dose: 3.12 mg/kg/injection, schedule: Q04DX003 (ip), vehicle: saline 95 % of control | endpoint: mean survival time, dose: 4.6 mg/kg/injection, schedule: Q01DX009 (ip), vehicle: saline 98 % of control | endpoint: mean survival time, dose: 6.25 mg/kg/injection, schedule: Q04DX003 (ip), vehicle: saline 94 % of control | endpoint: mean survival time, dose: 7.0 mg/kg/injection, schedule: Q01DX009 (ip), vehicle: saline 93 % of control | endpoint: mean survival time, dose: 10.0 mg/kg/injection, schedule: Q01DX009 (ip), vehicle: saline 101 % of control

O=C(Nc1ccccc1)Nc1cccc([N+](=O)[O-])c1
inactive: [4] 100 % of control | [5] 92 % of control | [6] 103 % of control

CCN(CC)CCCC(C)Nc1c2ccccc2nc2c(Cl)cccc12 (stereo not drawn)
inactive: endpoint: mean survival time, dose: 20.0 mg/kg/injection, schedule: Q01DX Z (ip), vehicle: methylcellulose (MC) 100 % of control and 86 % of control | endpoint: mean survival time, dose: 30.0 mg/kg/injection, schedule: Q01DX Z (ip), vehicle: methylcellulose (MC) 92 % of control and 87 % of control | endpoint: mean survival time, dose: 45.0 mg/kg/injection, schedule: Q01DX Z (ip), vehicle: methylcellulose (MC) 95 % of control and 101 % of control | endpoint: mean survival time, dose: 67.0 mg/kg/injection, schedule: Q01DX Z (ip), vehicle: methylcellulose (MC) 91 % of control | [7] 102 % of control

NC(=O)COc1ccc(F)cc1F
inactive: [8] 101 % of control | [9] 97 % of control | [10] 93 % of control

CCN(CC)c1ccc2c(c1)Cc1ccccc1-2
inactive: [2] 100 % of control | [3] 98 % of control | endpoint: mean survival time, dose: 400.0 mg/kg/injection, schedule: Q04DX003 (ip), vehicle: saline with Tween-80 100 % of control

CC1(C)C(C#N)C(=O)N=C(N)C1C(N)=O (stereo not drawn)
inactive: endpoint: mean survival time, dose: 25.0 mg/kg/injection, schedule: Q01DX009 (ip), vehicle: Klucel (hydroxypropylcellulose) (HPC) 94 % of control | endpoint: mean survival time, dose: 50.0 mg/kg/injection, schedule: Q01DX009 (ip), vehicle: Klucel (hydroxypropylcellulose) (HPC) 94 % of control | endpoint: mean survival time, dose: 100.0 mg/kg/injection, schedule: Q01DX009 (ip), vehicle: Klucel (hydroxypropylcellulose) (HPC) 94 % of control | [7] 92 % of control

Nc1ccc(Cc2nc3ccccc3[nH]2)cc1
inactive: [11] 102 % of control | [12] 96 % of control | endpoint: mean survival time, dose: 400.0 mg/kg/injection, schedule: Q01DX001 (ip), vehicle: saline 98 % of control

CCOS(=O)(=O)c1ccc([N+](=O)[O-])cc1[N+](=O)[O-]
inactive: [13] 97 % of control | [14] 92 % of control

COc1cc2c(cc1OC)C1c3cc(OC)c(OC)cc3CC(=O)N1CC2 (stereo not drawn)
inactive: endpoint: mean survival time, dose: 50.0 mg/kg/injection, schedule: Q01DX009 (ip), vehicle: saline 87 % of control | [13] 104 % of control | endpoint: mean survival time, dose: 100.0 mg/kg/injection, schedule: Q04DX003 (ip), vehicle: saline 100 % of control | [14] 102 % of control | endpoint: mean survival time, dose: 200.0 mg/kg/injection, schedule: Q04DX003 (ip), vehicle: saline 96 % of control | endpoint: mean survival time, dose: 400.0 mg/kg/injection, schedule: Q01DX009 (ip), vehicle: saline 98 % of control | endpoint: mean survival time, dose: 400.0 mg/kg/injection, schedule: Q04DX003 (ip), vehicle: saline 95 % of control

CS(=O)NOCCCCONS(C)=O (stereo not drawn)
inactive: [8] 96 % of control and 89 % of control | [9] 96 % of control and 100 % of control | [10] 86 % of control

Cc1c[nH]c(=O)[nH]1
inactive: [4] 109 % of control | [5] 106 % of control | [6] 117 % of control

N#CC(C(=O)Nc1cccc(C(F)(F)F)c1)C(=S)Nc1ccccc1Cl (stereo not drawn)
inactive: endpoint: mean survival time, dose: 25.0 mg/kg/injection, schedule: Q04DX002 (ip), vehicle: saline with Tween-80 102 % of control | endpoint: mean survival time, dose: 50.0 mg/kg/injection, schedule: Q04DX002 (ip), vehicle: saline with Tween-80 105 % of control | [8] 101 % of control and 105 % of control

CCOc1ccccc1Cl
inactive: [1] 97 % of control | endpoint: mean survival time, dose: 200.0 mg/kg/injection, schedule: Q01DX009 (ip), vehicle: saline with Tween-80 102 % of control | endpoint: mean survival time, dose: 400.0 mg/kg/injection, schedule: Q01DX009 (ip), vehicle: saline with Tween-80 95 % of control

CCN(CC)c1ccc(/C=N/Nc2nnc(N/N=C/c3ccc(N(CC)CC)cc3)c3ccccc23)cc1
inactive: endpoint: mean survival time, dose: 50.0 mg/kg/injection, schedule: Q01DX001 (ip), vehicle: saline 94 % of control | [11] 92 % of control | [12] 105 % of control

O=C(O)c1cc(Br)c(Cl)c(Br)c1
inactive: endpoint: mean survival time, dose: 100.0 mg/kg/injection, schedule: Q04DX002 (ip), vehicle: Klucel (hydroxypropylcellulose) (HPC) 100 % of control | endpoint: mean survival time, dose: 200.0 mg/kg/injection, schedule: Q04DX002 (ip), vehicle: Klucel (hydroxypropylcellulose) (HPC) 100 % of control

OCc1nccn1Cc1ccccc1
inactive: endpoint: mean survival time, dose: 25.0 mg/kg/injection, schedule: Q01DX009 (ip), vehicle: water 99 % of control | endpoint: mean survival time, dose: 50.0 mg/kg/injection, schedule: Q01DX009 (ip), vehicle: water 100 % of control | [13] 97 % of control | endpoint: mean survival time, dose: 100.0 mg/kg/injection, schedule: Q01DX009 (ip), vehicle: water 100 % of control | [14] 108 % of control | endpoint: mean survival time, dose: 200.0 mg/kg/injection, schedule: Q01DX009 (ip), vehicle: water 106 % of control

F
inactive: endpoint: mean survival time, dose: 5.0 mg/kg/injection, schedule: Q01DX001 (ip), vehicle: saline 89 % of control | endpoint: mean survival time, dose: 10.0 mg/kg/injection, schedule: Q01DX001 (ip), vehicle: saline 97 % of control | endpoint: mean survival time, dose: 12.0 mg/kg/injection, schedule: Q01DX Z (ip), vehicle: saline 98 % of control | endpoint: mean survival time, dose: 20.0 mg/kg/injection, schedule: Q01DX001 (ip), vehicle: saline 103 % of control | endpoint: mean survival time, dose: 24.0 mg/kg/injection, schedule: Q01DX Z (ip), vehicle: saline 101 % of control | endpoint: mean survival time, dose: 40.0 mg/kg/injection, schedule: Q01DX001 (ip), vehicle: saline 97 % of control | endpoint: mean survival time, dose: 48.0 mg/kg/injection, schedule: Q01DX Z (ip), vehicle: saline 110 % of control | endpoint: mean survival time, dose: 62.0 mg/kg/injection, schedule: Q01DX Z (ip), vehicle: saline 92 % of control | endpoint: median survival time, dose: 5.0 mg/kg/injection, schedule: Q01DX009 (ip), vehicle: water 93 % of control | endpoint: median survival time, dose: 10.0 mg/kg/injection, schedule: Q01DX009 (ip), vehicle: water 100 % of control | endpoint: median survival time, dose: 20.0 mg/kg/injection, schedule: Q01DX009 (ip), vehicle: water 106 % of control | endpoint: median survival time, dose: 40.0 mg/kg/injection, schedule: Q01DX009 (ip), vehicle: water 106 % of control

Source: PubChem BioAssay AID248 (DTP/NCI, 2004)
